{"source": "patent US20100298141A1", "about": "“SUBSTITUTED PYRIDINE N-OXIDE HERBICIDES” (E. I. DU PONT DE NEMOURS AND COMPANY, priority 2007, published 2010)", "key": {"barnyardgrass": {"tested_on": "barnyardgrass", "assay": "Test B flooded paddy test", "type": "in vivo, Echinochloa crus-galli", "conditions": "Flood, 250 g ai/ha, 13 to 15 days; scale 0 to 100, 0 no effect, 100 complete control", "excerpt": "(§1) At time of treatment, test pots were flooded to 3 cm above the soil surface, treated by application of test compounds directly to the paddy water, and then maintained at that water depth for the duration of the test. Treated plants and controls were maintained in a greenhouse for 13 to 15 days, after which time all species were compared to controls and visually evaluated. […] A dash (-) response means no test result."}, "sugarcane": {"tested_on": "sugarcane", "assay": "Test F pre-/postemergence test", "type": "in vivo, Saccharum officinarum", "conditions": "for Sugarcane plant response rating: postemergence", "excerpt": "Seeds of plant species selected from bermudagrass (Cynodon dactylon), Surinam grass (Brachiaria decumbens), large crabgrass (Digitaria sanguinalis), green foxtail (Setaria viridis), goosegrass (Eleusine indica), johnsongrass (Sorghum halepense), kochia (Kochia scoparia), pitted morningglory (Ipomoea lacunosa), purple nutsedge (Cyperus rotundus), common ragweed (Ambrosia elation), mustard (Brassica nigra), guineagrass (Panicum maximum), […] (Paspalum dilatatum), barnyardgrass (Echinochloa crus-galli), southern sandbur (Cenchrus echinatus), common sowthistle (Sonchus oleraceous), prickly […] spinosa), Italian ryegrass (Lolium multiflorum), common purslane (Portulaca oleracea), broadleaf signalgrass (Brachiaria platyphylla), common groundsel (Senecio vulgaris), common chickweed (Stellaria media), Virginia dayflower (Commelina virginica), annual bluegrass (Poa annua), naked crabgrass (Digitaria nuda), […] cochinchinensis), quackgrass (Elytrigia repens), Canada horseweed (Conyza canadensis), field bindweed (Convolvulus arvensis), […] (Bidens bipinnata), common mallow (Malva sylvestris), Russian thistle (Salsola kali), and sugarcane (Saccharum officinarum) were planted and treated preemergence with test chemicals formulated in a non-phytotoxic solvent mixture which included a surfactant. At a different time, sugarcane was treated with postemergence applications of some of the test chemicals formulated in the same manner. Plants were approximately 3- to 4-leaf stage for the postemergence treatments. Treated plants and controls were maintained in a greenhouse for 14 to 21 days, after which time all species were compared to controls and visually evaluated. […] A dash (-) response means no test result."}, "Redstem": {"tested_on": "Redstem", "assay": "Test C flooded paddy test", "type": "in vivo", "conditions": "Flood", "excerpt": "as §1"}, "Ricefield Bulrush": {"tested_on": "Ricefield Bulrush", "assay": "Test C flooded paddy test", "type": "in vivo", "conditions": "Flood", "excerpt": "as §1"}, "fall panicum": {"tested_on": "fall panicum", "assay": "Test G preemergence test", "type": "in vivo, Panicum dichotomiflorum", "conditions": "scale 0 to 100"}, "winter barley": {"tested_on": "winter barley", "assay": "Test D preemergence test", "type": "in vivo, Hordeum vulgare", "excerpt": "Seeds of plant species selected from annual bluegrass (Poa annua), blackgrass (Alopecurus myosuroides), downy bromegrass (Bromus tectorum), field violet (Viola arvensis), green foxtail (Setaria viridis), Italian ryegrass (Lolium multiflorum), littleseed canarygrass (Phalaris minor), spring wheat (Triticum aestivum), wild oat (Avena fatua), […]), winter barley (Hordeum vulgare), and winter wheat (Triticum aestivum) were planted and treated preemergence with test chemicals formulated in a non-phytotoxic solvent mixture which included a surfactant. […] A dash (-) response means no test result."}, "soybean": {"tested_on": "soybean", "assay": "Test G preemergence test", "type": "in vivo, Glycine max", "conditions": "scale 0 to 100"}, "large crabgrass": {"tested_on": "large crabgrass", "assay": "Test G preemergence test", "type": "in vivo, Digitaria sanguinalis", "conditions": "scale 0 to 100"}, "lambsquarters": {"tested_on": "lambsquarters", "assay": "Test G preemergence test", "type": "in vivo, Chenopodium album", "conditions": "scale 0 to 100"}, "[1]": {"conditions": "250 g ai/ha, scale 0 to 100 (0 no effect, 100 complete control)"}, "[2]": {"conditions": "250 g ai/ha, preemergence, scale 0 to 100"}, "[3]": {"conditions": "31 g ai/ha, scale 0 to 100 (0 no effect, 100 complete control)"}, "[4]": {"conditions": "62 g ai/ha, scale 0 to 100, 0 no effect, 100 complete control, 13 to 15 days"}, "[5]": {"conditions": "125 g ai/ha, scale 0 to 100, 0 no effect, 100 complete control, 13 to 15 days"}, "[6]": {"conditions": "Preemergence, 62 g ai/ha, scale 0 to 100"}, "[7]": {"conditions": "Preemergence, 125 g ai/ha, scale 0 to 100"}, "[8]": {"conditions": "Preemergence, 31 g ai/ha, scale 0 to 100"}, "[9]": {"conditions": "preemergence, 250 g ai/ha, scale 0 (no effect) to 100 (complete control)"}}, "data": [{"smiles": "CC(c1c(C(F)(F)F)nn(C)c1OC(F)F)S(=O)(=O)c1cccc[n+]1[O-]", "note": "(stereo not shown) [Compound 5]", "values": [{"measurement": "Plant response rating, Barnyardgrass", "setting": "barnyardgrass", "value": 80}, {"measurement": "Sugarcane plant response rating", "setting": "sugarcane; 62 g ai/ha, scale 0 to 100", "value": 0}, {"measurement": "Sugarcane plant response rating", "setting": "sugarcane; [1]", "value": 7}, {"measurement": "Plant response rating, Sugarcane", "setting": "sugarcane; [2]", "value": 7}, {"measurement": "Plant response rating, Redstem", "setting": "Redstem; [3]", "value": 40}, {"measurement": "Plant response rating, Redstem", "setting": "Redstem; [4]", "value": 80}, {"measurement": "Plant response rating, Redstem", "setting": "Redstem; [5]", "value": 80}, {"measurement": "Plant response rating, Redstem", "setting": "Redstem; [1]", "value": 80}, {"measurement": "Plant response rating, Ricefield Bulrush", "setting": "Ricefield Bulrush; [3]", "value": 0}, {"measurement": "Plant response rating, Ricefield Bulrush", "setting": "Ricefield Bulrush; [4]", "value": 45}, {"measurement": "Plant response rating, Ricefield Bulrush", "setting": "Ricefield Bulrush; [5]", "value": 80}, {"measurement": "Plant response rating, Ricefield Bulrush", "setting": "Ricefield Bulrush; [1]", "value": 85}]}, {"smiles": "Cc1cc[n+]([O-])c(S(=O)(=O)Cc2c(C(F)(F)F)nn(C)c2OC(F)F)c1", "note": "[Compound 2]", "values": [{"measurement": "Plant response rating, Fall Panicum", "setting": "fall panicum; 31 g ai/ha", "value": 25}, {"measurement": "Plant response rating, Fall Panicum", "setting": "fall panicum; 62 g ai/ha", "value": 65}, {"measurement": "Plant response rating, Fall Panicum", "setting": "fall panicum; 125 g ai/ha", "value": 100}, {"measurement": "Plant response rating, Fall Panicum", "setting": "fall panicum; 250 g ai/ha", "value": 100}, {"measurement": "Plant response rating, Barnyardgrass", "setting": "barnyardgrass", "value": 80}, {"measurement": "Plant response rating, Barley", "setting": "winter barley; [6]", "value": 0}, {"measurement": "Plant response rating, Barley", "setting": "winter barley; [7]", "value": 10}, {"measurement": "Plant response rating, Barley", "setting": "winter barley; [8]", "value": 0}, {"measurement": "Plant response rating, Barley", "setting": "winter barley; [9]", "value": 10}, {"measurement": "Plant response rating, Soybean", "setting": "soybean; 31 g ai/ha", "value": 0}, {"measurement": "Plant response rating, Soybean", "setting": "soybean; 62 g ai/ha", "value": 0}, {"measurement": "Plant response rating, Soybean", "setting": "soybean; 125 g ai/ha", "value": 0}, {"measurement": "Plant response rating, Soybean", "setting": "soybean; 250 g ai/ha", "value": 0}, {"measurement": "Plant response rating, Crabgrass, Large", "setting": "large crabgrass; 31 g ai/ha", "value": 0}, {"measurement": "Plant response rating, Crabgrass, Large", "setting": "large crabgrass; 62 g ai/ha", "value": 75}, {"measurement": "Plant response rating, Crabgrass, Large", "setting": "large crabgrass; 125 g ai/ha", "value": 100}, {"measurement": "Plant response rating, Crabgrass, Large", "setting": "large crabgrass; 250 g ai/ha", "value": 100}, {"measurement": "Plant response rating, Lambsquarters", "setting": "lambsquarters; 31 g ai/ha", "value": 0}, {"measurement": "Plant response rating, Lambsquarters", "setting": "lambsquarters; 62 g ai/ha", "value": 0}, {"measurement": "Plant response rating, Lambsquarters", "setting": "lambsquarters; 125 g ai/ha", "value": 10}, {"measurement": "Plant response rating, Lambsquarters", "setting": "lambsquarters; 250 g ai/ha", "value": 15}, {"measurement": "Plant response rating, Sugarcane", "setting": "sugarcane; 125 g ai/ha, preemergence, scale 0 to 100", "value": 70}, {"measurement": "Plant response rating, Sugarcane", "setting": "sugarcane; 500 g ai/ha, preemergence, scale 0 to 100", "value": 83}, {"measurement": "Plant response rating, Redstem", "setting": "Redstem; [3]", "value": 0}, {"measurement": "Plant response rating, Redstem", "setting": "Redstem; [4]", "value": 30}, {"measurement": "Plant response rating, Redstem", "setting": "Redstem; [5]", "value": 65}, {"measurement": "Plant response rating, Redstem", "setting": "Redstem; [1]", "value": 85}, {"measurement": "Plant response rating, Ricefield Bulrush", "setting": "Ricefield Bulrush; [3]", "value": 20}, {"measurement": "Plant response rating, Ricefield Bulrush", "setting": "Ricefield Bulrush; [4]", "value": 20}, {"measurement": "Plant response rating, Ricefield Bulrush", "setting": "Ricefield Bulrush; [5]", "value": 45}, {"measurement": "Plant response rating, Ricefield Bulrush", "setting": "Ricefield Bulrush; [1]", "value": 80}]}, {"smiles": "Cn1nc(C(F)(F)F)c(C[S+]([O-])c2cccc[n+]2[O-])c1OC(F)F", "note": "(stereo not shown) [Compound 3]", "values": [{"measurement": "Plant response rating, Fall Panicum", "setting": "fall panicum; 31 g ai/ha", "value": 0}, {"measurement": "Plant response rating, Fall Panicum", "setting": "fall panicum; 62 g ai/ha", "value": 40}, {"measurement": "Plant response rating, Fall Panicum", "setting": "fall panicum; 125 g ai/ha", "value": 90}, {"measurement": "Plant response rating, Fall Panicum", "setting": "fall panicum; 250 g ai/ha", "value": 95}, {"measurement": "Plant response rating, Barnyardgrass", "setting": "barnyardgrass", "value": 60}, {"measurement": "Plant response rating, Barley", "setting": "winter barley; [6]", "value": 0}, {"measurement": "Plant response rating, Barley", "setting": "winter barley; [7]", "value": 0}, {"measurement": "Plant response rating, Barley", "setting": "winter barley; [8]", "value": 0}, {"measurement": "Plant response rating, Barley", "setting": "winter barley; [9]", "value": 15}, {"measurement": "Plant response rating, Soybean", "setting": "soybean; 31 g ai/ha", "value": 0}, {"measurement": "Plant response rating, Soybean", "setting": "soybean; 62 g ai/ha", "value": 15}, {"measurement": "Plant response rating, Soybean", "setting": "soybean; 125 g ai/ha", "value": 20}, {"measurement": "Plant response rating, Soybean", "setting": "soybean; 250 g ai/ha", "value": 35}, {"measurement": "Plant response rating, Crabgrass, Large", "setting": "large crabgrass; 31 g ai/ha", "value": 0}, {"measurement": "Plant response rating, Crabgrass, Large", "setting": "large crabgrass; 62 g ai/ha", "value": 60}, {"measurement": "Plant response rating, Crabgrass, Large", "setting": "large crabgrass; 125 g ai/ha", "value": 100}, {"measurement": "Plant response rating, Crabgrass, Large", "setting": "large crabgrass; 250 g ai/ha", "value": 100}, {"measurement": "Plant response rating, Lambsquarters", "setting": "lambsquarters; 31 g ai/ha", "value": 0}, {"measurement": "Plant response rating, Lambsquarters", "setting": "lambsquarters; 62 g ai/ha", "value": 0}, {"measurement": "Plant response rating, Lambsquarters", "setting": "lambsquarters; 125 g ai/ha", "value": 100}, {"measurement": "Plant response rating, Lambsquarters", "setting": "lambsquarters; 250 g ai/ha", "value": 100}, {"measurement": "Plant response rating, Sugarcane", "setting": "sugarcane; 62 g ai/ha, Preemergence, scale 0 to 100", "value": 17}, {"measurement": "Sugarcane plant response rating", "setting": "sugarcane; 62 g ai/ha, scale 0 to 100", "value": 32}, {"measurement": "Sugarcane plant response rating", "setting": "sugarcane; [1]", "value": 50}, {"measurement": "Plant response rating, Sugarcane", "setting": "sugarcane; [2]", "value": 50}, {"measurement": "Plant response rating, Redstem", "setting": "Redstem; [3]", "value": 20}, {"measurement": "Plant response rating, Redstem", "setting": "Redstem; [4]", "value": 40}, {"measurement": "Plant response rating, Redstem", "setting": "Redstem; [5]", "value": 45}, {"measurement": "Plant response rating, Redstem", "setting": "Redstem; [1]", "value": 85}, {"measurement": "Plant response rating, Ricefield Bulrush", "setting": "Ricefield Bulrush; [3]", "value": 55}, {"measurement": "Plant response rating, Ricefield Bulrush", "setting": "Ricefield Bulrush; [4]", "value": 55}, {"measurement": "Plant response rating, Ricefield Bulrush", "setting": "Ricefield Bulrush; [5]", "value": 75}, {"measurement": "Plant response rating, Ricefield Bulrush", "setting": "Ricefield Bulrush; [1]", "value": 80}]}]}
